Reference: PubChem BioAssay (NCI)
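Results reflect a 48-hour exposure of cells in 96-well plates to compound at five concentrations. At the GI50, growth is halved. TGI: concentration producing complete growth inhibition.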

What was measured:
Assay in all cases: NCI tumour cell line growth inhibition, 48 h
A549 NSCLC = tested on: A549 NSCLC
HCT-116 colon = tested on: HCT-116 colon
HS 578T breast = tested on: HS 578T breast
HT29 colon = tested on: HT29 colon
MDA-MB-231 breast = tested on: MDA-MB-231 breast
NCI-H522 lung = tested on: NCI-H522 lung
OVCAR-5 ovarian = tested on: OVCAR-5 ovarian
RPMI-8226 leukemia = tested on: RPMI-8226 leukemia
SK-MEL-2 melanoma = tested on: SK-MEL-2 melanoma
T-47D breast = tested on: T-47D breast

Row | Structure (SMILES) | GI50 (A549 NSCLC) | TGI (A549 NSCLC) | GI50 (HCT-116 colon) | TGI (HCT-116 colon) | GI50 (HS 578T breast) | TGI (HS 578T breast) | GI50 (HT29 colon) | TGI (HT29 colon) | GI50 (MDA-MB-231 breast) | TGI (MDA-MB-231 breast) | GI50 (NCI-H522 lung) | TGI (NCI-H522 lung) | GI50 (OVCAR-5 ovarian) | TGI (OVCAR-5 ovarian) | GI50 (RPMI-8226 leukemia) | TGI (RPMI-8226 leukemia) | GI50 (SK-MEL-2 melanoma) | TGI (SK-MEL-2 melanoma) | GI50 (T-47D breast) | TGI (T-47D breast)
1 | Clc1ccc(Nc2nc(Nc3ccccc3)nc(Nc3ccc(-c4cc(-c5ccc(Cl)cc5)on4)cc3)n2)cc1 | 19.2 µM | > 100 µM | 7.68 µM | 26.5 µM | 11.4 µM | > 100 µM | 10.8 µM | 25.5 µM | 10.5 µM | 66.3 µM | 16.2 µM | 36.7 µM | 20.9 µM | 89.1 µM | 18.7 µM | > 100 µM | 24.1 µM | > 100 µM | 8.94 µM | > 100 µM
2 | Nc1nnc(CCC(=O)Nc2cc(Cl)ccc2Cl)n1N |  | > 100 µM |  | > 100 µM |  |  |  | > 100 µM |  |  |  | > 100 µM |  | > 100 µM |  | > 100 µM |  | > 100 µM |  | 
3 | O=C1C2Cc3c(n(C(=O)c4ccccc4)c4ccccc34)CC2C(=O)N1c1ccc(Nc2ccc(N3C(=O)C4Cc5c(n(C(=O)c6ccccc6)c6ccccc56)CC4C3=O)cc2)cc1 (stereo not drawn) |  | > 100 µM |  | > 100 µM |  | > 100 µM |  | > 100 µM |  | > 100 µM |  | > 100 µM |  | > 100 µM |  |  |  |  |  | > 100 µM
4 | CC1=CC(O)C(C(O)(C(F)(F)F)C(F)(F)F)C(C)(C)C1 (stereo not drawn) |  | > 10 µM |  | > 10 µM |  | > 10 µM |  | > 10 µM |  | > 10 µM |  | > 10 µM |  | > 10 µM |  | > 10 µM |  | > 10 µM |  | > 10 µM
5 | OCCCSCCO |  | > 100 µM |  | > 100 µM |  | > 100 µM |  | > 100 µM |  | > 100 µM |  | > 100 µM |  | > 100 µM |  | > 100 µM |  | > 100 µM |  | > 100 µM
6 | O=C(O)C(O)C(O)C(O)C(O)C(=O)O (stereo not drawn) |  | > 100 µM |  | > 100 µM |  |  |  | > 100 µM |  | > 100 µM |  | > 100 µM |  | > 100 µM |  |  |  | > 100 µM |  | > 100 µM
7 | CC1C(=O)c2cc3c(cc2CCN(C)Cc2c1ccc1c2OCO1)OCO3 (stereo not drawn) | > 75 µg/mL | > 75 µg/mL | 23.4 µg/mL | > 75 µg/mL | > 75 µg/mL | > 75 µg/mL | 19.6 µg/mL | > 75 µg/mL | > 75 µg/mL | > 75 µg/mL | 34.6 µg/mL | > 75 µg/mL | > 75 µg/mL | > 75 µg/mL | 34.6 µg/mL | > 75 µg/mL | > 75 µg/mL | > 75 µg/mL | > 75 µg/mL | > 75 µg/mL
8 | Cc1cc2ccc(OC(=O)c3ccc(N=C(N)N)cc3)cc2oc1=O |  | > 100 µM |  | 76.5 µM |  | 71.6 µM |  | 70.4 µM |  | 49.2 µM |  | 45.2 µM |  | > 100 µM |  | 55.1 µM |  | 60.9 µM |  | 95 µM
9 | O=C1/C(=C/c2[nH]ncc2-c2ccc(Cl)cc2)C(=O)N(c2ccccc2)C1c1ccccc1 (stereo not drawn) |  | > 100 µM |  | 25 µM |  | 24.2 µM |  | 27.5 µM |  | 42.6 µM |  | 27.2 µM |  |  |  | 32.2 µM |  | 35.2 µM |  | 17.3 µM
10 | O/C(=C\c1nc2ccccc2nc1/C=C(\O)c1ccc(F)cc1)c1ccc(F)cc1 |  | > 100 µM |  | > 100 µM |  | > 100 µM |  | > 100 µM |  | > 100 µM |  | > 100 µM |  | > 100 µM |  | > 100 µM |  | > 100 µM |  | > 100 µM
11 | Nc1cc(S(=O)(=O)O)cc2ccc(S(=O)(=O)O)cc12 |  | > 100 µM |  | > 100 µM |  | > 100 µM |  | > 100 µM |  | > 100 µM |  | > 100 µM |  | > 100 µM |  | > 100 µM |  | > 100 µM |  | > 100 µM
12 | Cc1n[n+]([O-])c(C)cc1[N+](=O)[O-] |  | 48.1 µM |  | 31.6 µM |  | 66.9 µM |  | 27 µM |  | 39.8 µM |  | 25.6 µM |  | 36.8 µM |  | 6.31 µM |  | 42.3 µM |  | 35.3 µM
13 | CC1(C(=O)O)C[C@](C)(C(=O)OCc2ccccc2)C[C@](C)(C(=O)OCc2ccccc2)C1 (stereo partly drawn) |  | > 100 µM |  | 57.9 µM |  | 89.8 µM |  | > 100 µM |  |  |  | 60 µM |  | > 100 µM |  | 72.6 µM |  | 39.3 µM |  | > 100 µM
14 | O=C(Cc1csc2nc(-c3ccc(Cl)cc3)cn12)N/N=C/c1ccccc1O | 5.18 µM | > 100 µM |  |  | 10 µM | > 100 µM |  |  | 13.1 µM | > 100 µM |  |  | 38.8 µM | > 100 µM | 3.36 µM | > 100 µM |  |  | 4.16 µM | > 100 µM
15 | O=S(=O)(O)c1ccc2c(N=Nc3ccc(N=Nc4ccccc4)cc3)c(O)c(S(=O)(=O)O)cc2c1 |  | > 100 µM |  | > 100 µM |  | > 100 µM |  | > 100 µM |  | > 100 µM |  | > 100 µM |  | > 100 µM |  | > 100 µM |  | > 100 µM |  | > 100 µM
16 | N=c1ccc2nc(N)nn(O)c-2c1 |  | > 100 µM |  | > 100 µM |  | > 100 µM |  | > 100 µM |  | > 100 µM |  | > 100 µM |  | > 100 µM |  | > 100 µM |  | > 100 µM |  | > 100 µM
